For this test, the target named is T1, human V1a receptor (Homo sapiens, UniProt P37288).
T1 construct: expressed in transfected cells; host or cells: HEK293 cells, transiently transfected; membrane preparation
The experiment in a line: human V1a receptor binding studies (3H-Vasopressin, SPA beads). Conditions: membranes of HEK293 cells transiently transfected with human V1a receptor, Ki calculated by Cheng-Prussoff equation, read-out: pKi hV1a (converted). Here is the method:
The human V1a receptor was cloned by RT-PCR from total human liver RNA. The coding sequence was subcloned in an expression vector after sequencing to confirm the identity of the amplified sequence. […] Cell membranes were prepared from HEK293 cells transiently transfected with the expression vector and grown in 20 liter fermenters with the following protocol.
50 g of cells were resuspended in 30 ml freshly prepared ice cold Lysis buffer (50 mM HEPES, 1 mM EDTA, 10 mM MgCl2 adjusted to pH=7.4+complete cocktail of protease inhibitor (Roche Diagnostics)); homogenized with Polytron for 1 min; and sonicated on ice for 2×2 minutes at 80% intensity (Vibracell sonicator). The preparation was centrifuged 20 min at 500 g at 4° C., the pellet was discarded and the supernatant centrifuged 1 hour at 43,000 g at 4° C. (19,000 rpm). The pellet was resuspended in 12.5 ml Lysis buffer+12.5 ml Sucrose 20% and homogenized using a Polytron for 1-2 min. The protein concentration was determined by the Bradford method and aliquots were stored at −80° C. until use. For binding studies 60 mg Yttrium silicate SPA beads (Amersham) were mixed with an aliquot of membrane in binding buffer (50 mM Tris, 120 mM NaCl, 5 mM KCl, 2 mM CaCl2, 10 mM MgCl2) for 15 minutes with mixing. 50 ul of bead/membrane mixture was then added to each well of a 96 well plate, followed by 50 ul of 4 nM 3H-Vasopressin (American Radiolabeled Chemicals). For total binding measurement 100 ul of binding buffer were added to the respective wells, for non-specific binding 100 ul of 8.4 mM cold vasopressin and for compound testing 100 ul of a serial dilution of each compound in 2% DMSO. The plate was incubated Ih at room temperature, centrifuged 1 min at 1000 g and counted on a Packard Top-Count. Non-specific binding counts were subtracted from each well, and data was normalized to the maximum specific binding set at 100%. To calculate an IC 50 the curve was fitted using a non-linear regression model (XLfit), and the Ki was calculated using the Cheng-Prussoff equation.

Counter-ions that a name gives are not always drawn.

T1 sequence (P37288 whole entry): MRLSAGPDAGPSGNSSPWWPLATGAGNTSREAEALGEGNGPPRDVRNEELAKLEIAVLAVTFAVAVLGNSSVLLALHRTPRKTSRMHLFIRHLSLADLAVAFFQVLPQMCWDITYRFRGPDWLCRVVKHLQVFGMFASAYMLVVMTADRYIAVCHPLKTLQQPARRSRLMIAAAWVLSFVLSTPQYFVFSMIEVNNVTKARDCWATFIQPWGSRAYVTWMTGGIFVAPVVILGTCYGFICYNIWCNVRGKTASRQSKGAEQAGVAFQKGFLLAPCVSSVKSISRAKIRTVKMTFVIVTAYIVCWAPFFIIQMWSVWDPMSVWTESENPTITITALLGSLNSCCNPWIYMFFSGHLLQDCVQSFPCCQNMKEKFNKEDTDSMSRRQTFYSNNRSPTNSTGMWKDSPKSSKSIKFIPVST

On to `O=C(c1c[nH]c2cc(Cl)ccc12)N1CCC(N2C(=O)Cc3ccccc32)CC1` [Example 1, 1-[1-(6-Chloro-1H-indole-3-carbonyl)-piperidin-4-yl]-1,3-dihydro-indol-2-one], for which the Ki was 8.91 nM.
`O=C(c1cn(Cc2cc(F)cc(F)c2)c2cc(Cl)ccc12)N1CCC(N2C(=O)Cc3ccccc32)CC1` [Example 2, 1-{1-[6-Chloro-1-(3,5-difluoro-benzyl)-1H-indole-3-carbonyl]-piperidin-4-yl}-1,3-dihydro-indol-2-one]: the Ki was 2.57 nM.
In the case of `CNC(=O)Cn1cc(C(=O)N2CCC(N3C(=O)Cc4ccccc43)CC2)c2ccc(Cl)cc21` [Example 3, 2-{6-Chloro-3-[4-(2-oxo-2,3-dihydro-indol-1-yl)-piperidine-1-carbonyl]-indol-1-yl}-N-methyl-acetamide] it was 1.82 nM; in that of `CN(C)C(=O)Cn1cc(C(=O)N2CCC(N3C(=O)Cc4ccccc43)CC2)c2ccc(Cl)cc21` [Example 4, 2-(6-Chloro-3-{[4-(2-oxo-2,3-dihydro-1H-indol-1-yl)piperidin-1-yl]carbonyl}-1H-indol-1-yl)-N,N-dimethylacetamide], 1.29 nM.
As for `CCN(CC)C(=O)Cn1cc(C(=O)N2CCC(N3C(=O)Cc4ccccc43)CC2)c2ccc(Cl)cc21` [Example 5, 2-{6-Chloro-3-[4-(2-oxo-2,3-dihydro-indol-1-yl)-piperidine-1-carbonyl]-indol-1-yl}-N,N-diethyl-acetamide], the Ki was 11.7 nM.
Turning to `CS(=O)(=O)NCCn1cc(C(=O)N2CCC(N3C(=O)Cc4ccccc43)CC2)c2ccc(Cl)cc21` [Example 6, N-[2-(6-Chloro-3-{[4-(2-oxo-2,3-dihydro-1H-indol-1-yl)piperidin-1-yl]carbonyl}-1H-indol-1-yl)ethyl]methanesulfonamide], the Ki was 3.16 nM.
Turning to `CC(=O)NCCn1cc(C(=O)N2CCC(N3C(=O)Cc4ccccc43)CC2)c2ccc(Cl)cc21` [Example 7, N-[2-(6-Chloro-3-{[4-(2-oxo-2,3-dihydro-1H-indol-1-yl)piperidin-1-yl]carbonyl}-1H-indol-1-yl)ethyl]acetamide], the Ki is 11.7 nM.
In the case of `Cc1[nH]c2cc(Cl)ccc2c1C(=O)N1CCC(N2C(=O)Cc3ccccc32)CC1` [Example 8, 1-[1-(6-Chloro-2-methyl-1H-indole-3-carbonyl)-piperidin-4-yl]-1,3-dihydro-indol-2-one] it was 12.6 nM.
With `CNC(=O)Cn1cc(C(=O)N2CCC(n3c(=O)oc4ccccc43)CC2)c2ccc(Cl)cc21` [Example 10, 2-{6-Chloro-3-[4-(2-oxo-benzooxazol-3-yl)-piperidine-1-carbonyl]-indol-1-yl}-N-methyl-acetamide] the figure was 6.76 nM.
`CN(C)C(=O)Cn1cc(C(=O)N2CCC(n3nnc4ccccc43)CC2)c2ccc(Cl)cc21` [Example 13, 2-(3-{[4-(1H-Benzotriazol-1-yl)piperidin-1-yl]carbonyl}-6-chloro-1H-indol-1-yl)-N,N-dimethylacetamide]: the Ki is 14.1 nM.
In the case of `CNCCn1cc(C(=O)N2CCC(N3C(=O)Cc4ccccc43)CC2)c2ccc(Cl)cc21` [Example 14, 1-{1-[6-Chloro-1-(2-methylamino-ethyl)-1H-indole-3-carbonyl]-piperidin-4-yl}-1,3-dihydro-indol-2-one hydrochloride] it was 6.61 nM; in that of `CN(C)CCn1cc(C(=O)N2CCC(N3C(=O)Cc4ccccc43)CC2)c2ccc(Cl)cc21` [Example 15, 1-{1-[6-Chloro-1-(2-dimethylamino-ethyl)-1H-indole-3-carbonyl]-piperidin-4-yl}-1,3-dihydro-indol-2-one], 2.09 nM.
With `CN(C)CCn1cc(C(=O)N2CCC(n3nnc4ccccc43)CC2)c2ccc(Cl)cc21` [Example 17, (4-Benzotriazol-1-yl-piperidin-1-yl)-[6-chloro-1-(2-dimethylamino-ethyl)-1H-indol-3-yl]-methanone] the figure was 19.5 nM; with `CN1CCn2c(c(C(=O)N3CCC(n4nnc5ccccc54)CC3)c3ccc(Cl)cc32)C1` [Example 18, (4-Benzotriazol-1-yl-piperidin-1-yl)-(7-chloro-2-methyl-1,2,3,4-tetrahydro-pyrazino[1,2-a]indol-10-yl)-methanone], 20.9 nM.

These data come from patent US20080161315A1, “INDOLES” (priority 2006, published 2008).
